What was measured:
Phosphodiesterase 3 = Phosphodiesterase 3 (Homo sapiens, UniProt Q14432+Q13370); test: Inhibitory concentration against phosphodiesterase 3 from human platelet
[1] = Inhibition of Phosphodiesterase 7
[2] = biological target: T1, cGMP-dependent 3',5'-cyclic phosphodiesterase (Rattus norvegicus, UniProt Q01062); test: Inhibitory concentration against phosphodiesterase 2 from rat kidney
T1 sequence (Q01062 whole entry): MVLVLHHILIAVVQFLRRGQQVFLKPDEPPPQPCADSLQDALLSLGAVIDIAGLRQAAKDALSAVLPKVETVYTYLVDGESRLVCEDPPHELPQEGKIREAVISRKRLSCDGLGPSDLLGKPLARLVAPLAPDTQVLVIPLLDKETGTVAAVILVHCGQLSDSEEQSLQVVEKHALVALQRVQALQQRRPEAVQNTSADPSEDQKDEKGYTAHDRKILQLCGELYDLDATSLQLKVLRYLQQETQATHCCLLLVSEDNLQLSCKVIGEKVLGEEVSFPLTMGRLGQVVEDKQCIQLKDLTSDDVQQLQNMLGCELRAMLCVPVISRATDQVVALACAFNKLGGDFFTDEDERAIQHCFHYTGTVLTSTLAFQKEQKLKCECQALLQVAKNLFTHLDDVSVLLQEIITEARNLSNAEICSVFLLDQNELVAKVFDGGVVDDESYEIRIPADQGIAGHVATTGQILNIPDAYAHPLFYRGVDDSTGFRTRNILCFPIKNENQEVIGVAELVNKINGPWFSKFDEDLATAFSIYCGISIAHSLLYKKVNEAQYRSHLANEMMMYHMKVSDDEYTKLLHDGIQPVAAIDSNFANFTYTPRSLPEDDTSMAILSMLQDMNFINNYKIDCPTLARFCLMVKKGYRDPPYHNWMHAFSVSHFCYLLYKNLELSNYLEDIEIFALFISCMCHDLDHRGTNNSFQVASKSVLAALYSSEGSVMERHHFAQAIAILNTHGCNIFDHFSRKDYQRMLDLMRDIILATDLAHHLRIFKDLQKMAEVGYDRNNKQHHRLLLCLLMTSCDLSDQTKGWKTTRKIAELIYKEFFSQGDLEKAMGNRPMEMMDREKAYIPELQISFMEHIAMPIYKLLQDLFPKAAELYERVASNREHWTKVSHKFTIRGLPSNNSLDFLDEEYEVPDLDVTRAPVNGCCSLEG

Phosphodiesterase 1 = Phosphodiesterase 1 (Bos taurus, UniProt Q01061+P14100); test: Inhibitory concentration against phosphodiesterase 1 from bovine, calmodulin; format: protein assay
[3] = Inhibitory concentration ratio of PDE5 to that of PDE7
[4] = Inhibitory concentration ratio of PDE1 to that of PDE7
[5] = Inhibitory concentration ratio of PDE2 to that of PDE7
[6] = Inhibitory concentration ratio of PDE4 to that of PDE7
[7] = Inhibitory concentration ratio of PDE3 to that of PDE7
[8] = biological target: cGMP-specific 3',5'-cyclic phosphodiesterase (Homo sapiens, UniProt O76074); test: Inhibitory concentration against phosphodiesterase 5 (PDE5) from human platelet
Rattus norvegicus [9] = species: Rattus norvegicus
Rattus norvegicus [10] = species: Rattus norvegicus; test: Inhibition of Phosphodiesterase 7 at 1 uM

IC50 [1] | IC50 [2] | Ratio [3] | Ratio [4] | Ratio [5] | Ratio [6] | Ratio [7] | Structure (SMILES) | further results
> 10000 nM | > 10 µM | – | – | – | – | – | COc1ccc(C2CNC(=O)C2)cc1OC1CCCC1 (stereo not given) [ROLIPRAM] | IC50 (Phosphodiesterase 3): > 10 µM; IC50 (Phosphodiesterase 1): > 10 µM
55 nM | – | 0.9 | 18 | 25 | 22 | 130 | CCOC(=O)c1sc(Nc2nc(NCc3ccc(S(C)(=O)=O)cc3)c3c(ncn3CC)n2)nc1C | –
100 nM | – | 15 | 1.7 | 14 | 24 | 33 | CCOC(=O)c1sc(Nc2nc(NCc3cc(OC)c(OC)c(OC)c3)c3c(ncn3CC)n2)nc1C | –
> 10000 nM | > 10 µM | – | – | – | – | – | COc1nc2c([nH]1)c(=O)n(C)c(=O)n2CC(C)C | IC50 (Phosphodiesterase 3): > 10 µM; IC50 [8]: 3.02 µM; IC50 (Phosphodiesterase 1): 1.8 µM
940 nM | – | 2.9 | 1.3 | 2.3 | 3.8 | 2.5 | CCOC(=O)c1sc(Nc2nc(NCc3ccc(OCc4ccccc4)c(OC)c3)c3c(ncn3CC)n2)nc1C | –
– | – | – | – | – | – | – | Nc1ncnc2c1ncn2[C@@H]1O[C@@H]2COP(=O)(O)O[C@H]2[C@H]1O | Km (Rattus norvegicus [9]): 0.2 µM
– | – | – | – | – | – | – | CCn1cnc2nc(Nc3nc(C)cs3)nc(NCc3ccc(OC)c(OC)c3)c21 | inhibition (Rattus norvegicus [10]): 15%
820 nM | – | 1.1 | 12 | 11 | 7 | 12 | CCn1cnc2nc(Nc3nc(C)c(C(=O)Nc4ccccc4)s3)nc(NCc3ccc(OC)c(OC)c3)c21 | –
110 nM | – | 0.38 | 19 | – | – | 11 | CCOC(=O)c1sc(Nc2nc(NCc3ccc4c(c3)OCO4)c3c(ncn3CC)n2)nc1C | –
150 nM | – | 4.6 | 2.8 | 3.6 | 1.3 | 17 | CCOC(=O)c1sc(Nc2nc(N3CCc4cc(OC)c(OC)cc4C3)c3c(ncn3CC)n2)nc1C | –
> 10000 nM | > 10 µM | – | – | – | – | – | CCCc1nn(C)c2c(=O)[nH]c(-c3cc(S(=O)(=O)N4CCN(C)CC4)ccc3OCC)nc12 | –
370 nM | – | 4.1 | – | – | – | 21 | CCOC(=O)c1sc(Nc2nc(OCc3ccc(S(C)(=O)=O)cc3)c3ncn(CC)c3n2)nc1C | –
10 nM | – | 13 | 200 | 45 | 16 | > 5000 | CCOC(=O)c1sc(Nc2nc(NCc3ccc(S(N)(=O)=O)cc3)c3ncn(CC)c3n2)nc1C | –
1600 nM | – | 0.55 | – | – | 0.046 | 0.11 | CCOC(=O)c1sc(Nc2nc(NS(=O)(=O)c3ccc(S(C)(=O)=O)cc3)c3ncn(CC)c3n2)nc1C | –
11 nM | – | – | – | – | – | – | CCOC(=O)c1sc(Nc2nc(NCc3ccc(S(N)(=O)=O)cc3)c3c(ncn3CC)n2)nc1C | –
> 10000 nM | > 10 µM | – | – | – | – | – | CN(C(=O)CCCOc1ccc2[nH]c(=O)ccc2c1)C1CCCCC1 [CILOSTAMIDE] | IC50 [8]: 7.15 µM; IC50 (Phosphodiesterase 1): > 10 µM
150 nM | 1.7 µM | – | – | – | – | – | CCOC(=O)c1sc(Nc2nc(NCc3ccc(OC)c(OC)c3)c3c(ncn3CC)n2)nc1C | IC50 (Phosphodiesterase 3): 0.58 µM; IC50 [8]: 0.27 µM; IC50 (Phosphodiesterase 1): 0.22 µM

Structure (SMILES) | IC50 [1] | IC50 [2] | Ratio [3] | Ratio [4] | Ratio [5] | Ratio [6] | Ratio [7] | further results
COc1cc(-c2ccc(=O)[nH]n2)ccc1OC(F)F [ZARDAVERINE] | > 10000 nM | > 10 µM | – | – | – | – | – | IC50 (Phosphodiesterase 3): 0.11 µM; IC50 [8]: > 10 µM; IC50 (Phosphodiesterase 1): > 10 µM

Reference: ChEMBL document CHEMBL1146771, “Identification of purine inhibitors of phosphodiesterase 7 (PDE7)” (Bioorg Med Chem Lett, 2004)
